Source: patent US20230227442A1, “HETEROALKYL DIHYDROQUINOLINE SULFONAMIDE COMPOUNDS” (AMGEN INC., priority 2020, published 2023)

Tests used:
CYP3A4 = test: Human CYP 3A4 induction assay (mRNA, cryopreserved human hepatocytes); type: in vitro ADME; details: 72 hours, percent of control (POC); for CYP3A4 mRNA Induct Hu 2 uM POC: 2 uM test compound; for CYP3A4 mRNA Induct Hu 10 uM POC: 10 uM test compound
Description: Human CYP 3A4 Induction Assay
Cryopreserved human hepatocytes were seeded in 96-well collagen coated plates at 70,000 cells per well in hepatocyte plating media (HPM, final concentrations: lx Dulbecco's Modified Eagle's Medium, 0.1 μM dexamethasone, 10% fetal bovine serum, lx ITS, 1×PSG) followed by incubation at 37° C. under 5% CO2 and 90% relative humidity for 2 days to allow hepatocytes to form a confluent layer. On Day 3, hepatocytes were treated with either test compound or rifampin (20 μM, positive control for CYP3A induction) prepared in hepatocyte incubation media ((HIM, final concentrations: 1× William's Medium E, 0.1 μM dexamethasone, 1×ITS, 1×PSG). Treatment was performed for 72 hours with either 2 concentrations (2 μM or 10 μM) or a range of concentrations (0.001 μM to 100 μM) of the test compound to obtain full dose-response curve. Fresh media containing the relevant concentrations of the test compound was replaced every day until the samples were processed. After 72 hours of incubation, samples were processed for mRNA analysis using bDNA technology using manufacturer's instructions (Affymetrix, Fremont, Calif.). Cell viability was tested at the end of the experiment using MTT assay kit (Roche Diagnostics, Basel, Switzerland). Data was analyzed and presented as percent of control (POC) and Emax and EC50 obtained when appropriate according to guidance from Center for Drug Evaluation and Research (CDER), 2006, Guidance for Industry, Drug Interaction Studies—Study Design, Data Analysis, and Implications for Dosing and Labeling.
Cryopreserved human hepatocytes were seeded in 96-well collagen coated plates at 70,000 cells per well in hepatocyte plating media (HPM, final concentrations: lx Dulbecco's Modified Eagle's Medium, 0.1 μM dexamethasone, 10% fetal bovine serum, lx ITS, 1×PSG) followed by incubation at 37° C. under 5% CO2 and 90% relative humidity for 2 days to allow hepatocytes to form a confluent layer. On Day 3, hepatocytes were treated with either test compound or rifampin (20 μM, positive control for CYP3A induction) prepared in hepatocyte incubation media ((HIM, final concentrations: 1× William's Medium E, 0.1 μM dexamethasone, 1×ITS, 1×PSG). Treatment was performed for 72 hours with either 2 concentrations (2 μM or 10 μM) or a range of concentrations (0.001 μM to 100 μM) of the test compound to obtain full dose-response curve. Fresh media containing the relevant concentrations of the test compound was replaced every day until the samples were processed. After 72 hours of incubation, samples were processed for mRNA analysis using bDNA technology using manufacturer's instructions (Affymetrix, Fremont, Calif.). Cell viability was tested at the end of the experiment using MTT assay kit (Roche Diagnostics, Basel, Switzerland). Data was analyzed and presented as percent of control (POC) and Emax and EC50 obtained when appropriate, as described in Halladay, J. et al, 2012, An “all-inclusive” 96-well cytochrome P450 induction method: Measuring enzyme activity, mRNA levels, protein levels, and cytotoxicity from one well using cryopreserved human hepatocytes, Pharmacological and Toxicological Methods, 66:270-275.

Human Nav1.7 = molecular target: T1, Human Nav1.7 (Homo sapiens, UniProt Q15858); test: Ionworks Barracuda (IWB) automated patch clamp assay; type: cell-based; details: population patch clamp, HEK cells, 4 min compound incubation at -20 mV; read-out: hNaV1.7 IWB-U IC50
T1 construct: expressed in transfected cells; host or cells: Spiking HEK cells (without Kir2.1 transfection)
T1 sequence (Q15858 whole entry): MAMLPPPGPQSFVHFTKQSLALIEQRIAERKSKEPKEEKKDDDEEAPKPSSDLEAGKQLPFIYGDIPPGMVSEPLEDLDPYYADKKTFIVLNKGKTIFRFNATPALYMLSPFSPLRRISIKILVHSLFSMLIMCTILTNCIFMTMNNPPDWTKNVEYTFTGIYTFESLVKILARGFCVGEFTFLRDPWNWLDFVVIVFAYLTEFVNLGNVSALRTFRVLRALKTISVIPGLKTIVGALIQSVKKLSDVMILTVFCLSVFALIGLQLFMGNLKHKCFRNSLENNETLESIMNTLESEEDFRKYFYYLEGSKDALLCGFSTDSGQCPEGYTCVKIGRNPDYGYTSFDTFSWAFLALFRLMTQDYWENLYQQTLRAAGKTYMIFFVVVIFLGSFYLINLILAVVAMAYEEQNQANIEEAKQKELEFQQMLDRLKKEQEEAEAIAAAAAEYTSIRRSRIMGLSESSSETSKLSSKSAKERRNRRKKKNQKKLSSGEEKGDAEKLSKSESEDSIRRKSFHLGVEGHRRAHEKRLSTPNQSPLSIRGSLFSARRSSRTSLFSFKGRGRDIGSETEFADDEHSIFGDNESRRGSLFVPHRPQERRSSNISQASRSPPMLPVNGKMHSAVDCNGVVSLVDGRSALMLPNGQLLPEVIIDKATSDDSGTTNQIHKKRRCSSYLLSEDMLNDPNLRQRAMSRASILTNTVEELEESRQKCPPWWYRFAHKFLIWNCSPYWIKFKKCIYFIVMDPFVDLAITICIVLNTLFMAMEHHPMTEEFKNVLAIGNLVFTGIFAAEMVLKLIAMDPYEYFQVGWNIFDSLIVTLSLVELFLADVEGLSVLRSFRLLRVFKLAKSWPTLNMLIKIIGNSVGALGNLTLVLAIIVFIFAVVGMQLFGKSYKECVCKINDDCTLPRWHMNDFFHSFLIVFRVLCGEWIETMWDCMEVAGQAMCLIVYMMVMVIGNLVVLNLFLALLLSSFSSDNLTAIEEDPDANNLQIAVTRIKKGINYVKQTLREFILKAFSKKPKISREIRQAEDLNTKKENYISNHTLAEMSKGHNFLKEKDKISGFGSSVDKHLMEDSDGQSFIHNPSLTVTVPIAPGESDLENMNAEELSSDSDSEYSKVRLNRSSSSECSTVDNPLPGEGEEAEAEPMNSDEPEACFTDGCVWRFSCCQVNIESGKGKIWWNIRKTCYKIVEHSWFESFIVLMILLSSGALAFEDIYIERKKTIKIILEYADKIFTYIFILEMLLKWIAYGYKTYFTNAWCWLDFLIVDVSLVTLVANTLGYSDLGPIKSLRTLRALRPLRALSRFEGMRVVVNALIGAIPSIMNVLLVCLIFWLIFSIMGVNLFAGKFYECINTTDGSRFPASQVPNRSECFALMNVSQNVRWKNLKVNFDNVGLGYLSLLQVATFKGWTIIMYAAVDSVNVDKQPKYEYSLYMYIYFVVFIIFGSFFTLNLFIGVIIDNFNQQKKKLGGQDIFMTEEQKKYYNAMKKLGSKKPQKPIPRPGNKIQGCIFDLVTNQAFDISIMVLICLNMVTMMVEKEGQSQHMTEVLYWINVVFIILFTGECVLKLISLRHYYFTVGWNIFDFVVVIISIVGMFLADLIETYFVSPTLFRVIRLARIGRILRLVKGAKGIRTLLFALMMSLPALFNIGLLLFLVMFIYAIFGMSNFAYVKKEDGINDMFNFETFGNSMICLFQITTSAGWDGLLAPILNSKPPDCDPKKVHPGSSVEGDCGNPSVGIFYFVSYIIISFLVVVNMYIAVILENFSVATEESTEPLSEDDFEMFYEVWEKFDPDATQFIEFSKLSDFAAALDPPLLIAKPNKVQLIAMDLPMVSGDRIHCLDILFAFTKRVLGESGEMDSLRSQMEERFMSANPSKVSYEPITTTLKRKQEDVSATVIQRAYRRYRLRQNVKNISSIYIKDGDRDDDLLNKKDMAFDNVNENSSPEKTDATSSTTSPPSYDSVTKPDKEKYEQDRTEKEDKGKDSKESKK
Description: Ionworks Barracuda Automated Patch Clamp Assay (Same Protocol for Both Human and Mouse)
Human Nav1.7 currents were recorded in population patch-clamp mode with the IWB automated electrophysiology system (Molecular Devices, LLC, Sunnyvale, Calif.). Spiking HEK cells (without Kir2.1 transfection) were cultured and prepared for recordings as previously described for IonWorks Quattro testing^1. The external solution consisted of the following (in mM): NaCl 140, KCl 5, CaCl2 2, MgCl2 1, HEPES 10, and glucose 11, pH 7.4, with N-methyl-D-glucamine at 320 mOsmol. The internal solution consisted of the following (in mM): KCl 70, KF 70, MgCl2 0.25, HEDTA 5, and HEPES 10, pH 7.25, with Nmethyl-D-glucamine, 300 mOsmol. From a holding potential of −110 mV, currents were elicited by a train of 26 depolarizations of 150 ms duration to −20 mV at a frequency of 5 Hz. Cells were then clamped to −20 mV for a period of 4 minutes in the presence of a single concentration of test compound. Following this compound incubation period, cells were clamped to −110 mV for three seconds to recover unbound channels and put through the same 26 pulse voltage protocol as above. Peak inward current during the 26th pulse to −20 mV in the presence of compound was divided by the peak inward current evoked by the 26th pulse to −20 mV in the absence of compound to determine percent inhibition. Concentration-response curves of percent inhibition as a function of concentration were generated to calculate IC50 values as described in Kornecook, T. J.; Yin, R.; Altmann, S.; et al. Pharmacologic Characterization of AMG8379, a Potent and Selective Small Molecule Sulfonamide Antagonist of the Voltage-Gated Sodium Channel NaV1. 7. J. Pharmacol. Exp. Ther. 2017, 362, 146-160.

| Compound | CYP3A4 mRNA Induct Hu 2 uM POC (CYP3A4) | CYP3A4 mRNA Induct Hu 10 uM POC (CYP3A4) | IC50 (Human Nav1.7) |
| --- | --- | --- | --- |
| COc1cc(OCC(F)(F)F)c(Cl)cc1-n1c(=O)ccc2cc(S(=O)(=O)Nc3ccon3)ccc21 (atropisomer, axis not shown; (P)) [Example 15, (P)-1-(5-chloro-2-methoxy-4-(2,2,2-trifluoroethoxy)phenyl)-N-(isoxazol-3-yl)-2-oxo-1,2-dihydroquinoline-6-sulfonamide] | 7.7% | 20.2% | 23 nM |
| COc1cc(SC(F)(F)F)c(F)cc1-n1c(=O)cc(F)c2cc(S(=O)(=O)Nc3ccon3)ccc21 [Example 11, P-4-fluoro-1-(5-fluoro-2-methoxy-4-((trifluoromethyl)thio)phenyl)-N-(isoxazol-3-yl)-2-oxo-1,2-dihydroquinoline-6-sulfonamide] | 7.3% | 48.1% | 10 nM |
| COc1cc(CCC(F)(F)F)c(F)cc1-n1c(=O)ccc2cc(S(=O)(=O)Nc3ccon3)ccc21 (atropisomer, axis not shown; (P)) [Compound A, (P)-1-(5-fluoro-2-methoxy-4-(3,3,3-trifluoropropyl)phenyl)-N-(1,2-oxazol-3-yl)-2-oxo-1,2-dihydro-6-quinolinesulfonamide, reference compound] | 41.9% | 76.1% | 14 nM |
| COc1cc(COC(F)(F)F)c(Cl)cc1-n1c(=O)ccc2cc(S(=O)(=O)Nc3ccon3)ccc21 (atropisomer, axis not shown; (P)) [Example 1, (P)-1-(5-chloro-2-methoxy-4-((trifluoromethoxy)methyl)phenyl)-N-(isoxazol-3-yl)-2-oxo-1,2-dihydroquinoline-6-sulfonamide] | 1.7% | – | 7 nM |
| COc1cc(OC(F)(F)F)c(Cl)cc1-n1c(=O)ccc2cc(S(=O)(=O)Nc3ccon3)ccc21 (atropisomer, axis not shown; (P)) [Example 3, (P)-1-(5-chloro-2-methoxy-4-(trifluoromethoxy)phenyl)-N-(isoxazol-3-yl)-2-oxo-1,2-dihydroquinoline-6-sulfonamide] | 10.1% | 35.4% | 9 nM |
| COc1cc(COC(F)(F)F)c(F)cc1-n1c(=O)ccc2cc(S(=O)(=O)Nc3ccon3)c(F)cc21 (atropisomer, axis not shown; (P)) [Example 6, (P)-7-fluoro-1-(5-fluoro-2-methoxy-4-((trifluoromethoxy)methyl)phenyl)-N-(isoxazol-3-yl)-2-oxo-1,2-dihydroquinoline-6-sulfonamide] | 18.3% | 30.1% | 11 nM |
| COc1cc(SC(F)(F)F)c(F)cc1-n1c(=O)ccc2cc(S(=O)(=O)Nc3ncccn3)c(F)cc21 (atropisomer, axis not shown; (P)) [Example 19, (P)-7-fluoro-1-(5-fluoro-2-methoxy-4-((trifluoromethyl)thio)phenyl)-2-oxo-N-(pyrimidin-2-yl)-1,2-dihydroquinoline-6-sulfonamide] | 17.4% | 49.2% | 29 nM |
| COc1cc(SC(F)(F)F)c(C)cc1-n1c(=O)ccc2cc(S(=O)(=O)Nc3ccon3)ccc21 [Example 12, P-N-(isoxazol-3-yl)-1-(2-methoxy-5-methyl-4-((trifluoromethyl)thio)phenyl)-2-oxo-1,2-dihydroquinoline-6-sulfonamide] | 20.2% | 61.2% | 14 nM |

Continued, values first:

| CYP3A4 mRNA Induct Hu 2 uM POC (CYP3A4) | CYP3A4 mRNA Induct Hu 10 uM POC (CYP3A4) | IC50 (Human Nav1.7) | Compound |
| --- | --- | --- | --- |
| 5.7% | 25.6% | 185 nM | COc1nc(SC(F)(F)F)c(F)cc1-n1c(=O)ccc2cc(S(=O)(=O)Nc3ccon3)ccc21 (atropisomer, axis not shown; (P)) [Example 26, (P)-1-(5-fluoro-2-methoxy-6-((trifluoromethyl)thio)pyridin-3-yl)-N-(isoxazol-3-yl)-2-oxo-1,2-dihydroquinoline-6-sulfonamide] |
| 14.8% | 41.5% | 34 nM | COc1cc(OCCC(F)(F)F)c(F)cc1-n1c(=O)ccc2cc(S(=O)(=O)Nc3ccon3)c(F)cc21 (atropisomer, axis not shown; (P)) [Example 22, (P)-7-fluoro-1-(5-fluoro-2-methoxy-4-(3,3,3-trifluoropropoxy)phenyl)-N-(isoxazol-3-yl)-2-oxo-1,2-dihydroquinoline-6-sulfonamide] |
| 11.5% | 38.0% | 102 nM | COc1cc(OCC(F)(F)F)c(F)cc1-n1c(=O)c(F)cc2cc(S(=O)(=O)Nc3ccon3)ccc21 (atropisomer, axis not shown; (P)) [Example 25, (P)-3-fluoro-1-(5-fluoro-2-methoxy-4-(2,2,2-trifluoroethoxy)phenyl)-N-(isoxazol-3-yl)-2-oxo-1,2-dihydroquinoline-6-sulfonamide] |
| 7.4% | 25.1% | 39 nM | COc1cc(SC(F)(F)F)ccc1-n1c(=O)ccc2cc(S(=O)(=O)Nc3ccon3)ccc21 (atropisomer, axis not shown; (P)) [Example 23] |
